Test results published in patent EP1860116A1, “Trehalose conjugate with carnosine having antioxidant activity, stable to enzymatic hydrolysis, procedure for its preparation, and pharmaceutical, cosmetic and nutraceutical compositions that contain it” (Universita' Degli Studi Di Catania, priority 2006, dated 2007).

What was measured:
[1] = tested on: carnosinase contained in rat brain homogenate; test: Enzymatic hydrolysis by brain carnosinase (rat brain homogenate, histidine quantified fluorometrically with OPA); assay type: in vitro ADME; conditions: 20% rat brain homogenate, Tris buffer pH 8.1, 37°C for 2 h, compared with carnosine
Protocol: The breakdown of the carbohydrate conjugate of carnosine was measured by the following method: a 20% homogenate of rat brain was prepared with a 50 mM Tris buffer (Tris-(hydroxymethyl)-aminomethane) pH 8.1 containing 2 mM DTT (di-thio-threitol), and the mixture was centrifuged for 20 min at 19000 rpm. Part of the supernatant solution (192 µl) was incubated at 37°C for 2 h with the carnosine-trehalose conjugate, in a final volume of 300 µl. The reaction was interrupted by adding acetonitrile (300 µL), and the solution was subjected to double extraction with chloroform. The amount of histidine in the final solution was quantified fluorometrically after reacting with orthophthaldialdehyde OPA (Fluka), according to a method reported in Clin. Chim.

[2] = tested on: low-density lipoproteins (LDL); test: Antioxidant activity towards low-density lipoproteins (LDL): Cu2+-induced lipid peroxidation, MDA determined by HPLC; assay type: biochemical; conditions: human LDL, peroxidation induced by copper (II) ions (40 µM), 4 h at 37°C, pH 7.4; conjugate at 5, 10, 20, 50, 100 and 200 µM; compared with carnosine
Protocol: In order to test the antioxidant activity of carnosine and the carbohydrate derivative, freeze-dried human LDL (Sigma) was used as lipid peroxidation target.
The MDA standard was obtained by hydrolysis of the bis-dimethylacetal derivative (Sigma) in 1% sulphuric acid.
The process of peroxidation of humane LDLs (Sigma), suspended in 20 mM ammonium acetate at pH 7.4, was triggered by the addition of Cu^2+ (40 µM) to the protein suspension, followed by a 4 h incubation at 37°C (Free Radic. Res. 35, 953, 2001; J. Agr. Food Chem. 45, 3362, 1997). The lipid peroxidation inhibiting effect of the trehalose-carnosine conjugate was evaluated by adding this molecule to the LDL-Cu^2+ system at increasing concentrations (5, 10, 20, 50, 100 and 200 µM). The peroxidation reaction was interrupted by adding an equal volume of acetonitrile, followed by double extraction with chloroform.
For the determination of MDA, the end product of lipid peroxidation, the aqueous extract was analysed by HPLC, using an analysis method reported in Anal. Biochem. 197, 191, 1991 (data reported in figure 1).

For `O=C(CCNC[C@H]1O[C@H](O[C@H]2O[C@H](CO)[C@@H](O)[C@H](O)[C@H]2O)[C@H](O)[C@@H](O)[C@@H]1O)N[C@@H](Cc1c[nH]cn1)C(=O)O` [compound I, 6-(β-alanyl-L-histidine)-6-deoxy-α,α'-trehalose], the “resistance to enzymatic hydrolysis by carnosinase” value [1] was “more resistant to the carnosinase contained in rat brain homogenate than carnosine”, the “resistance to enzymatic hydrolysis by carnosinase” value ([1]; listed as compound according to the invention) was “more resistant to enzymatic hydrolysis than carnosine” and the “antioxidant activity (lipid peroxidation inhibiting effect)” value [2] was “dose-dependent antioxidant effect, which was significantly greater than that of carnosine”.
